Results published in patent EP3359195B1 (AB Science, priority 2015, dated 2017).
Where two headings read alike, the source gives them in different places.

Key:
mastocytosis = details: cited from earlier work; for major response: more than 50% improvement in symptoms and signs; for overall response rate: sum of CR, MR and PR
[1] = tested on: Ba/F3 cells expressing human or mouse wild-type c-Kit; details: read-out: IC50, stem cell factor-induced proliferation and c-Kit tyrosine phosphorylation; cited from earlier work
[2] = tested on: severe systemic mastocytosis; assay: post-hoc analysis of pooled phase 2 studies AB06013 and AB04010, cohort simulating severe systemic mastocytosis; assay type: in vivo, human; details: for Cumulative response rate (≥75 %) from W8 to W24, Hamilton or FIS / Cumulative response rate (≥75 %) from W8 to W24, Flushes or Pruritus: 2-handicap response rate; for Cumulative response rate (≥75 %) from W8 to W24, Hamilton or FIS: at least one handicap from [Hamilton or FIS]; for Cumulative response rate (≥75 %) from W8 to W24, Flushes or Pruritus: at least one handicap from [flushes or pruritus]
[3] = tested on: Ba/F3 cells expressing the D816V c-Kit mutation; details: read-out: IC50, proliferation; cited from earlier work
[4] = entire evaluable study population (N=80)
[5] = missing data considered as failure (observed cases after W12)

For `Nc1nc(Cl)nc2c1ncn2[C@H]1C[C@H](O)[C@@H](CO)O1` [Cladribine], the major response (mastocytosis; [4]) is listed as 37%, the overall response rate (mastocytosis; [4]) is listed as 55% and the overall response rate (mastocytosis; patients with ISM (N=22)) is listed as 56%.
For `NC(=O)NO` [hydroxyurea], the major response (mastocytosis; [4]) is given as 0%, the overall response rate (mastocytosis; [4]) is given as 19% and the overall response rate (mastocytosis; patients with ISM (N=22)) is given as 0%.
In the case of `Cc1ccc(NC(=O)c2ccc(CN3CCN(C)CC3)cc2)cc1Nc1nccc(-c2cccnc2)n1` [imatinib mesilate], the major response (mastocytosis; [4]) is given as 9%, the overall response rate (mastocytosis; [4]) is given as 18% and the overall response rate (mastocytosis; patients with ISM (N=22)) is given as 14%.
In the case of `Cc1ccc(NC(=O)c2ccc(CN3CCN(C)CC3)cc2)cc1Nc1nc(-c2cccnc2)cs1` [masitinib, 4-(4-methylpiperazin-1-ylmethyl)-N-[4-methyl-3-(4-pyridin-3ylthiazol-2-ylamino)phenyl]benzamide], the IC50 [1] is listed as 150 ± 80 nM, the “Cumulative response rate (≥75 %) from W8 to W24, Hamilton or FIS” value [2] is listed as ~10% and the “Cumulative response rate (≥75 %) from W8 to W24, Hamilton or FIS” value ([2]; listed as Masitinib) is listed as 10.3%. For the same molecule, the “Cumulative response rate (≥75 %) from W8 to W24, Flushes or Pruritus” value [2] was “approximately 40%”, the “Cumulative response rate (≥75 %) from W8 to W24, Flushes or Pruritus” value ([2]; listed as Masitinib) was 38.8% and the “Overall response ≥ 75%” value ([2]; Week 12, at least one severe handicap among pruritus, flushes, fatigue or depression at baseline, missing data considered as failure, listed as Masitinib) was 25.0%. For the same molecule, the “Overall response ≥ 75%” value ([2]; Week 12, patients with both pruritus score ≥9 and flushes per week ≥8 at baseline (4 patients, 8 handicaps)) was 1/8 (12.5%), the “Overall response ≥ 75%” value ([2]; Week 24, at least one severe handicap among pruritus, flushes, fatigue or depression at baseline, missing data considered as failure) was 23.5% and the “Overall response ≥ 75%” value ([2]; Week 24, at least one severe handicap among pruritus, flushes, fatigue or depression at baseline, missing data considered as failure, listed as Masitinib) was 23.5%. The “Overall response ≥ 75%” value ([2]; Week 24, patients with both pruritus score ≥9 and flushes per week ≥8 at baseline (4 patients, 8 handicaps)) was 50%, the “Cumulative response rate (≥75 %) from W8 to W24, Overall Response” value ([2]; at least one handicap among pruritus, flushes, fatigue or depression, W8, W12, W24) was 26.1% and the “Cumulative response rate (≥75 %) from W8 to W24, FIS only” value [2, 5] was 8.0%. For the same molecule, the “Cumulative response rate (≥75 %) from W8 to W24, Flushes only” value [2, 5] was 52.8%, the “Cumulative response rate (≥75 %) from W8 to W24, Hamilton only” value [2, 5] was 16.7% and the “Cumulative response rate (≥75 %) from W8 to W24, Micturition frequency (pollakiuria) only” value [2, 5] was 1.8%. For the same molecule, the “Cumulative response rate (≥75 %) from W8 to W24, Pruritus only” value [2, 5] was 28.6%, the “Cumulative response rate (≥75 %) from W8 to W24, Stool frequency (diarrhea) only” value [2, 5] was 18.4% and the IC50 [3] was 5000 ± 2000 nM.
